Assay [1] deals with T1, butyrylcholinesterase (BuChE) (Homo sapiens, UniProt P06276).
T1 construct: purchased Sigma 9001-08-5 (this is the CAS number of cholinesterase, not a catalogue number)
In words: biochemical. The procedure:
(§1) A spectrophotometric analysis was conducted by Ellman et al. to determine the inhibition of ChEs (AChE and BuChE). […] An incubation of 15 min was performed at room temperature with 140 L of sodium phosphate buffer (pH 8.0), 20 L of AChE/BuChE solution, and 20 L of the test sample. AChE/BuChE solutions containing DTNB were introduced into the 10 L solution to initiate the reaction. […] A percentage of inhibition was calculated using the ratio of enzyme activity in the presence of the test sample (E), minus enzyme activity without the test sample (S), expressed as E–S/E100. Each substance’s inhibition of substrate hydrolysis by ChE was quantified using its IC50 value (g/mL) or M. Compounds with the same IC50 values are calculated using the same standardized plot.

In assay [2] the target is T2, acetylcholinesterase (AChE) (Homo sapiens, UniProt P22303).
T2 construct: purchased Sigma 9000-81-1 (so in the source); this is the CAS number of acetylcholinesterase, not a catalogue number
T2 sequence (P22303 32-614): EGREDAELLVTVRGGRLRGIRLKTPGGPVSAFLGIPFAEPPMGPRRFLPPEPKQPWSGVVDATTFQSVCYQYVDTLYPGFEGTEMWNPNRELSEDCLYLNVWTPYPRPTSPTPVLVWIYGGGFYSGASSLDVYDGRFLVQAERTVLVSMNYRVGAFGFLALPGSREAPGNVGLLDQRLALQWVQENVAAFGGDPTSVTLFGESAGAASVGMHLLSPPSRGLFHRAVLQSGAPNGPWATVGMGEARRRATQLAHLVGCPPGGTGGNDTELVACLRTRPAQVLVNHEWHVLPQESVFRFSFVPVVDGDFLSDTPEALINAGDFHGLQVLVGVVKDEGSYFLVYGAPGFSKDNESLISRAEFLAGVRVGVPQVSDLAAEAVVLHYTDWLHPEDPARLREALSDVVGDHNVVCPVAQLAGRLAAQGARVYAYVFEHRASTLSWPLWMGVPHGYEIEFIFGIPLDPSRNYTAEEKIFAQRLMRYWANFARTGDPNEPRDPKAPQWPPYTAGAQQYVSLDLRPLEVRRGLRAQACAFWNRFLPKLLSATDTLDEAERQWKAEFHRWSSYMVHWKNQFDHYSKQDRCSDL
Nature of the assay: biochemical. Here is the method:
as §1

[3] abbreviates: substrate BTCh, DTNB, pH 8.0, 15 min incubation, read-out: BuChE IC50 ± SEM.
[4] abbreviates: printed without unit in text / Figure 2, read-out: AChE IC50.
The mark [5] stands for this setting: substrate ATCh, DTNB, pH 8.0, 15 min incubation, read-out: AChE IC50 ± SEM.
Setting [6] is: printed without unit in Figure 2 (second value of each pair), read-out: BuChE IC50.

Here are results for 17 compounds from article PMC10747300, “Identification of Indazole-Based Thiadiazole-Bearing Thiazolidinone Hybrid Derivatives: Theoretical and Computational Approaches to Develop Promising Anti-Alzheimer’s Candidates” (Pharmaceuticals, 2023).

For orientation: IC50 means the concentration at which inhibition is half-maximal.

Molecules are shown by their SMILES. “And” between values parts separate entries of the source, which are not always exact repeats. Identical values can stand only once. Like-named read-outs stand apart in the source and are kept apart here.

T1 sequence (P06276 29-602): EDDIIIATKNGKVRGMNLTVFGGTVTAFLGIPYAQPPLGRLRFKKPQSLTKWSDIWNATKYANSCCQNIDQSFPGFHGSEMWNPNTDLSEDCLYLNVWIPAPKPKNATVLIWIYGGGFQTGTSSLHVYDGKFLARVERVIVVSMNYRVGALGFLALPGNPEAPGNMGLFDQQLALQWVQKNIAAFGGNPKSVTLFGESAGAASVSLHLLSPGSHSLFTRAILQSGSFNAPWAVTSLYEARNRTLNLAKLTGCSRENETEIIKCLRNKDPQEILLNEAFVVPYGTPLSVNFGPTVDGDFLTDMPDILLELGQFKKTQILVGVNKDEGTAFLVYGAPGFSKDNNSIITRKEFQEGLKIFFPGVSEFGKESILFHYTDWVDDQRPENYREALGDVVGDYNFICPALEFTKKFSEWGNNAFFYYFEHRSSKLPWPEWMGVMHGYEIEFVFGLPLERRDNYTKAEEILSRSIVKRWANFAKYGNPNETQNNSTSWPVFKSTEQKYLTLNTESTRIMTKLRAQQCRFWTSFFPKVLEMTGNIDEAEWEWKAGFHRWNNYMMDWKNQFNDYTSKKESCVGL

In the case of `O=C1N/C(=N/c2nnc(-c3ccc4[nH]ncc4c3)s2)S/C1=C/c1ccc(Br)cc1` [Compound 10, (Z)-2-((5-(1H-Indazol-5-yl)-1,3,4-Thiadiazol-2-yl)Imino)-5-((E)-4-Bromobenzylidene)Thiazolidin-4-One], the IC50 in assay [1] (setting [3]) stood at 25000 ± 440 nM; in assay [2] (setting [4]), 24680 ± 120 nM; in assay [2] (setting [5]), 24680 ± 120 nM.
As to `O=C1N/C(=N/c2nnc(-c3ccc4[nH]ncc4c3)s2)S/C1=C/c1ccccc1F` [Compound 15, (Z)-2-((5-(1H-Indazol-5-yl)-1,3,4-Thiadiazol-2-yl)Imino)-5-((E)-2-Fluorobenzylidene)Thiazolidin-4-One], the half-maximal inhibitory concentration (IC50) in assay [1] (setting [6]) was 1270 ± 400 nM; in assay [1] (setting [3]) it was 1270 ± 400 nM; in assay [2] (setting [4]) it was 1240 ± 360 nM; in assay [2] (setting [5]) it was 1240 ± 360 nM.
Turning to `O=C1N/C(=N/c2nnc(-c3ccc4[nH]ncc4c3)s2)S/C1=C/c1ccc(Br)c([N+](=O)[O-])c1` [Compound 17, (Z)-2-((5-(1H-Indazol-5-yl)-1,3,4-Thiadiazol-2-yl)Imino)-5-((E)-4-Bromo-3-Nitrobenzylidene)Thiazolidin-4-One], the 50% inhibitory concentration (IC50) in assay [1] (setting [3]) came to 20500 ± 860 nM; in assay [2] (setting [4]) it was 22300 ± 1000 nM; in assay [2] (setting [5]), 22300 ± 1000 nM.
As for `O=C1N/C(=N/c2nnc(-c3ccc4[nH]ncc4c3)s2)S/C1=C/c1ccc(C(F)(F)F)cc1` [Compound 9, (Z)-2-((5-(1H-Indazol-5-yl)-1,3,4-Thiadiazol-2-yl)Imino)-5-((E)-4-(Trifluoromethyl)Benzylidene)Thiazolidin-4-One], the IC50 amounted to 890 ± 120 nM in assay [1] (setting [6]), 890 ± 120 nM in assay [1] (setting [3]), 860 ± 300 nM in assay [2] (setting [4]) and 860 ± 300 nM in assay [2] (setting [5]).
For the compound `COc1cccc(/C=C2/S/C(=N\c3nnc(-c4ccc5[nH]ncc5c4)s3)NC2=O)c1` [Compound 6, (Z)-2-((5-(1H-Indazol-5-yl)-1,3,4-Thiadiazol-2-yl)Imino)-5-((E)-3-Methoxybenzylidene)Thiazolidin-4-One], the results for the IC50 in assay [1] (setting [3]), in assay [2] (setting [4]) and in assay [2] (setting [5]) were 13000 ± 150 nM, 12700 ± 330 nM and 12700 ± 330 nM, respectively.
For the compound `O=C1N/C(=N/c2nnc(-c3ccc4[nH]ncc4c3)s2)S/C1=C/c1ccc(Cl)c(Cl)c1` [Compound 8, (Z)-2-((5-(1H-Indazol-5-yl)-1,3,4-Thiadiazol-2-yl)Imino)-5-((E)-3,4-Dichlorobenzylidene)Thiazolidin-4-one], the IC50 in assay [1] (setting [3]) stood at 1290 ± 410 nM; in assay [2] (setting [5]), 1220 ± 640 nM.
For the compound `Cc1cc(Br)cc(/C=C2/S/C(=N\c3nnc(-c4ccc5[nH]ncc5c4)s3)NC2=O)c1` [Compound 12, (Z)-2-((5-(1H-Indazol-5-yl)-1,3,4-Thiadiazol-2-yl)Imino)-5-((E)-3-Bromo-5-Methylbenzylidene)Thiazolidin-4-One], the IC50 was found to be 26200 ± 670 nM in assay [1] (setting [3]), 25120 ± 180 nM in assay [2] (setting [4]) and 25120 ± 180 nM in assay [2] (setting [5]).
Turning to `Cc1cc(C)cc(/C=C2/S/C(=N\c3nnc(-c4ccc5[nH]ncc5c4)s3)NC2=O)c1` [Compound 4, (Z)-2-((5-(1H-Indazol-5-yl)-1,3,4-Thiadiazol-2-yl)Imino)-5-((E)-3,5-Dimethylbenzylidene)Thiazolidin-4-One], the IC50 is 8840 ± 980 nM in assay [1] (setting [3]), 8600 ± 1050 nM in assay [2] (setting [4]) and 8600 ± 1050 nM in assay [2] (setting [5]).
In the case of `Cc1ccc(/C=C2/S/C(=N\c3nnc(-c4ccc5[nH]ncc5c4)s3)NC2=O)c(C)c1` [Compound 3, (Z)-2-((5-(1H-Indazol-5-yl)-1,3,4-Thiadiazol-2-yl)Imino)-5-((E)-2,4-Dimethylbenzylidene)Thiazolidin-4-One], the IC50 stood at 8800 ± 130 nM in assay [1] (setting [3]), 8260 ± 400 nM in assay [2] (setting [4]) and 8260 ± 400 nM in assay [2] (setting [5]).
For `O=C1N/C(=N/c2nnc(-c3ccc4[nH]ncc4c3)s2)S/C1=C/c1ccccc1Cl` [Compound 2, (Z)-2-((5-(1H-Indazol-5-yl)-1,3,4-Thiadiazol-2-yl)Imino)-5-((E)-2-Chlorobenzylidene)Thiazolidin-4-One], the IC50 is 3360 ± 280 nM in assay [1] (setting [3]), 3110 ± 590 nM in assay [2] (setting [4]) and 3110 ± 590 nM in assay [2] (setting [5]).
Regarding `O=C1N/C(=N/c2nnc(-c3ccc4[nH]ncc4c3)s2)S/C1=C/c1cccc(Br)c1` [Compound 11, (Z)-2-((5-(1H-Indazol-5-yl)-1,3,4-Thiadiazol-2-yl)Imino)-5-((E)-3-Bromobenzylidene)Thiazolidin-4-One], the IC50 in assay [1] (setting [3]) stood at 27080 ± 190 nM; in assay [2] (setting [4]) it was 26700 ± 840 nM; in assay [2] (setting [5]), 26700 ± 840 nM.
With `O=C1N/C(=N/c2nnc(-c3ccc4[nH]ncc4c3)s2)S/C1=C/c1cccc2ccccc12` [Compound 13, (2Z,5E)-2-((5-(1H-Indazol-5-yl)-1,3,4-Thiadiazol-2-yl)Imino)-5-(Naphthalen-1-Ylmethylene)Thiazolidin-4-One], the “AChE IC50” value in assay [2] (printed without unit in text / Figure 2) is “no discernable activity”.
Take `O=C1N/C(=N/c2nnc(-c3ccc4[nH]ncc4c3)s2)S/C1=C/c1ccc(F)cc1O` [Compound 14, (Z)-2-((5-(1H-Indazol-5-yl)-1,3,4-Thiadiazol-2-yl)Imino)-5-((E)-4-Fluoro-2-Hydroxybenzylidene)Thiazolidin-4-One]: the IC50 in assay [1] (setting [6]) was 980 ± 480 nM; in assay [1] (setting [3]), 1190 nM and 980 nM; in assay [2] (setting [4]), 920 ± 100 nM; in assay [2] (setting [5]), 1100 nM and 920 nM.
For the compound `O=C1N/C(=N/c2nnc(-c3ccc4[nH]ncc4c3)s2)S/C1=C/c1ccc([N+](=O)[O-])cc1` [Compound 7, (Z)-2-((5-(1H-Indazol-5-yl)-1,3,4-Thiadiazol-2-yl)Imino)-5-((E)-4-Nitrobenzylidene)Thiazolidin-4-One], the IC50 in assay [1] (setting [3]) was determined as 1570 ± 280 nM; in assay [2] (setting [5]), 1400 ± 310 nM.
On to `O=C1N/C(=N/c2nnc(-c3ccc4[nH]ncc4c3)s2)S/C1=C/c1cc(Cl)c(Cl)c([N+](=O)[O-])c1` [Compound 1, (Z)-2-((5-(1H-Indazol-5-yl)-1,3,4-Thiadiazol-2-yl)Imino)-5-((E)-3,4-Dichloro-5-Nitrobenzylidene)Thiazolidin-4-One], for which the 50% inhibitory concentration (IC50) is 1190 ± 420 nM in assay [1] (setting [6]); 890 nM and 1190 nM in assay [1] (setting [3]); 860 nM and 1100 nM in assay [2] (setting [5]).
As to `O=C1N/C(=N/c2nnc(-c3ccc4[nH]ncc4c3)s2)S/C1=C/c1cccc(F)c1` [Compound 16, (Z)-2-((5-(1H-Indazol-5-yl)-1,3,4-Thiadiazol-2-yl)Imino)-5-((E)-3-Fluorobenzylidene)Thiazolidin-4-One], the IC50 came out at 1200 ± 470 nM in assay [1] (setting [6]), 1200 ± 470 nM in assay [1] (setting [3]), 1200 ± 580 nM in assay [2] (setting [4]) and 1200 ± 580 nM in assay [2] (setting [5]).
In the case of `COc1ccc(/C=C2/S/C(=N\c3nnc(-c4ccc5[nH]ncc5c4)s3)NC2=O)cc1` [Compound 5, (Z)-2-((5-(1H-Indazol-5-yl)-1,3,4-Thiadiazol-2-yl)Imino)-5-((E)-4-Methoxybenzylidene)Thiazolidin-4-One], the 50% inhibitory concentration (IC50) worked out at 10600 ± 740 nM in assay [1] (setting [3]), 10400 ± 980 nM in assay [2] (setting [4]) and 10400 ± 980 nM in assay [2] (setting [5]).
